Test system: sAPPβ release in SH-SY5Y cells
Experiment: sAPPβ release assay
Assay type: cell-based
Settings: Homo sapiens, SH-SY5Y, 17 h, compounds incubated 17 h, MSD detection
Experimental: Thaw cells and seed at a conc. of around 10000 cells/well in DMEM/F-12 with Glutamax, 10% FCS and 1% non-essential amino acids to a 384-well tissue culture treated plate, 100 μL cell susp/well. […] The cell medium was removed, followed by addition of 30 μL compound diluted in DMEM/F-12 with Glutamax, 10% FCS, 1% non-essential amino acids and 1% PeSt to a final conc. of 1% DMSO. The compounds were incubated with the cells for 17 h (overnight) at 37° C., 5% CO2. Meso Scale Discovery (MSD) plates were used for the detection of sAPPβ release. MSD sAPPβ plates were blocked in 1% BSA in Tris wash buffer (40 μL/well) for 1 h on shake at r.t. and washed 1 time in Tris wash buffer (40 μL/well). 20 μL of medium was transferred to the pre-blocked and washed MSD sAPPβ microplates, and the cell plates were further used in an ATP assay to measure cytotoxicity. The MSD plates were incubated with shaking at r.t. for 2 h and the media discarded. 10 μL detection antibody was added (1 nM) per well followed by incubation with shaking at r.t. for 2 h and then discarded. 40 μL Read Buffer was added per well and the plates were read in a SECTOR Imager.

Row | SMILES | IC50 [nM]
1 | COC1CCC2(CC1)Cc1ccc(Br)cc1[C@@]21N=C(C)C(N)=N1 (single isomer, unassigned) [Example 19 Isomer 1] | 18
2 | CC1=NC2(CC(C3CCCOC3)Oc3ccc(Br)cc32)N=C1N (single isomer, unassigned) [Example 47 Isomer 2, 6-Bromo-5′-methyl-2-(tetrahydro-2H-pyran-3-yl)spiro[chromane-4,2′-imidazole]-4′-amine] | 657
3 | CC1=NC2(CCOc3ccc(NC(=O)c4ccc(Cl)cn4)cc32)N=C1N (centres unmarked) [Example 13a, N-(4′-Amino-5′-methylspiro[chroman-4,2′-imidazole]-6-yl)-5-chloropicolinamide] | 501
4 | CC1=NC2(CCOc3ccc(NC(=O)c4ncc(Cl)cc4Cl)cc32)N=C1N (centres unmarked) [Example 13i, N-(4′-Amino-5′-methylspiro[chroman-4,2′-imidazole]-6-yl)-3,5-dichloropicolinamide] | 160

The remaining lines, values ahead:

Row | IC50 [nM] | SMILES
5 | 7.1 | CO[C@H]1CC[C@]2(CC1)Cc1ccc(C#CC(C)(C)C)cc1C21N=C(C)C(N)=N1 (some centres unmarked) [Example 20h]
6 | 8.6 | CO[C@H]1CC[C@]2(CC1)Cc1ccc(NC(=O)c3ccc(C(F)(F)F)cn3)cc1C21N=C(C)C(N)=N1 (some centres unmarked) [Example 20k, N-[(1r,4r)-4″-Amino-4-methoxy-5″-methyl-3′H-dispiro[cyclohexane-1,2′-indene-1′,2″-imidazol]-6′-yl]-5-(trifluoromethyl)pyridine-2-carboxamide]
7 | 9.2 | CO[C@H]1CC[C@]2(CC1)Cc1ccc(NC(=O)c3ncc(Cl)cc3Cl)cc1C21N=C(C)C(N)=N1 (some centres unmarked) [Example 20o, N-[(1r,4r)-4″-Amino-4-methoxy-5″-methyl-3′H-dispiro[cyclohexane-1,2′-indene-1′,2″-imidazol]-6′-yl]-3,5-dichloropyridine-2-carboxamide]
8 | 3.8 | CO[C@H]1CC[C@]2(CC1)Cc1ccc(NC(=O)c3ccc(Cl)cn3)cc1C21N=C(C)C(N)=N1 (some centres unmarked) [Example 20q, N-[(1r,4r)-4″-Amino-4-methoxy-5″-methyl-3′H-dispiro[cyclohexane-1,2′-indene-1′,2″-imidazol]-6′-yl]-5-chloropyridine-2-carboxamide]
9 | 0.63 | CO[C@H]1CC[C@]2(CC1)Cc1ccc(OCCC(F)(F)F)cc1C21N=C(C)C(N)=N1 (some centres unmarked) [Example 20u, (1r,4r)-4-methoxy-5″-methyl-6′-(3,3,3-trifluoropropoxy)-3′H-dispiro[cyclohexane-1,2′-indene-1′,2″-imidazol]-4″-amine]

Same assay, conditions: Homo sapiens, compounds incubated 17 h, MSD detection

Row | SMILES | IC50 [nM]
10 | CC1=N[C@]2(N=C1N)c1cc(-c3cc(F)cc(C#N)c3)ccc1C[C@]21CC[C@@H](OC(F)F)CC1 (racemic) [Example 105, 3-[(1r,4r)-4″-Amino-4-(difluoromethoxy)-5″-methyl-3′H-dispiro[cyclohexane-1,2′-indene-1′,2″-imidazol]-6′-yl]-5-fluorobenzonitrile] | 9.7
11 | COc1cc(C#N)cc(-c2ccc3c(c2)[C@@]2(N=C(C)C(N)=N2)[C@]2(CC[C@H](OC(F)F)CC2)C3)c1 (racemic) [Example 106, 3-[(1r,4r)-4″-Amino-4-(difluoromethoxy)-5″-methyl-3′H-dispiro[cyclohexane-1,2′-indene-1′,2″-imidazol]-6′-yl]-5-methoxybenzonitrile] | 1.1
12 | COc1cc(C#N)cc(-c2ccc3c(c2)[C@@]2(N=C(C)C(N)=N2)[C@]2(CC[C@H](OC)CC2)C3)c1 (single isomer, unassigned) [Example 92 Isomer 1] | 0.27
13 | CC1=NC2(CCOc3ccc(-c4cc(Cl)cc(Cl)c4)cc32)N=C1N (centres unmarked) [Example 1, 6-(3,5-Dichlorophenyl)-5′-methylspiro[chroman-4,2′-imidazol]-4′-amine] | 587
14 | CC1=NC2(CCOc3ccc(-c4cncc(Cl)c4)cc32)N=C1N (centres unmarked) [Example 2, 6-(5-Chloropyridin-3-yl)-5′-methylspiro[chroman-4,2′-imidazol]-4′-amine] | 941
15 | CC1=NC2(CCOc3ccc(-c4cc(F)cc(F)c4)cc32)N=C1N (centres unmarked) [Example 3, 6-(3,5-Difluorophenyl)-5′-methylspiro[chroman-4,2′-imidazol]-4′-amine] | 2880
16 | CC1=NC2(CCOc3ccc(NC(=O)c4ccc(C(F)(F)F)cn4)cc32)N=C1N (centres unmarked) [Example 13c, N-(4′-Amino-5′-methylspiro[chroman-4,2′-imidazole]-6-yl)-5-(trifluoromethyl)picolinamide] | 463
17 | CC#CCOc1ccc(C(=O)Nc2ccc3c(c2)C2(CCO3)N=C(C)C(N)=N2)nc1 (centres unmarked) [Example 13d, N-(4′-amino-5′-methylspiro[chroman-4,2′-imidazole]-6-yl)-5-(but-2-ynyloxy)picolinamide] | 239
18 | CC#CCOc1cnc(C(=O)Nc2ccc3c(c2)C2(CCO3)N=C(C)C(N)=N2)cn1 (centres unmarked) [Example 13e, N-(4′-Amino-5′-methylspiro[chroman-4,2′-imidazole]-6-yl)-5-(but-2-ynyloxy)pyrazine-2-carboxamide] | 106
19 | CC1=NC2(N=C1N)c1cc(Br)ccc1CC21CCC(OC(F)F)CC1 (centres unmarked) [Example 15, 6′-Bromo-4-(difluoromethoxy)-5″-methyl-3′H-dispiro[cyclohexane-1,2′-indene-1′,2″-imidazol]-4″-amine] | 46

More lines, now with the values ahead:

Row | IC50 [nM] | SMILES
20 | 0.78 | CC#Cc1ccnc(-c2ccc3c(c2)C2(N=C(C)C(N)=N2)[C@]2(CC[C@H](OC)CC2)C3)c1 (some centres unmarked) [Example 20b, (1r,4r)-4-Methoxy-5″-methyl-6′-[4-(prop-1-yn-1-yl)pyridin-2-yl]-3′H-dispiro[cyclohexane-1,2′-indene-1′,2″-imidazol]-4″-amine]
21 | 1.7 | CO[C@H]1CC[C@]2(CC1)Cc1ccc(-c3cc(C#N)cc(C#N)c3)cc1C21N=C(C)C(N)=N1 (some centres unmarked) [Example 20c, 5-[(1r,4r)-4″-Amino-4-methoxy-5″-methyl-3′H-dispiro[cyclohexane-1,2′-indene-1′,2″-imidazol]-6′-yl]benzene-1,3-dicarbonitrile]
22 | 3.3 | CO[C@H]1CC[C@]2(CC1)Cc1ccc(-c3cncc(F)c3)cc1C21N=C(C)C(N)=N1 (some centres unmarked) [Example 20f, (1r,4r)-6′-(5-Fluoropyridin-3-yl)-4-methoxy-5″-methyl-3′H-dispiro[cyclohexane-1,2′-indene-1′,2″-imidazol]-4″-amine]
23 | 91 | CO[C@H]1CC[C@]2(CC1)Cc1ccc(NC(=O)c3ncc(Br)cn3)cc1C21N=C(C)C(N)=N1 (some centres unmarked) [Example 20j, N-[(1r,4r)-4″-Amino-4-methoxy-5″-methyl-3′H-dispiro[cyclohexane-1,2′-indene-1′,2″-imidazol]-6′-yl]-5-bromopyrimidine-2-carboxamide]
24 | 3.7 | CO[C@H]1CC[C@]2(CC1)Cc1ccc(NC(=O)c3oc4cc(Cl)ccc4c3C)cc1C21N=C(C)C(N)=N1 (some centres unmarked) [Example 20n, N-[(1r,4r)-4″-Amino-4-methoxy-5″-methyl-3′H-dispiro[cyclohexane-1,2′-indene-1′,2″-imidazol]-6′-yl]-6-chloro-3-methyl-1-benzofuran-2-carboxamide]
25 | 1.2 | CO[C@H]1CC[C@]2(CC1)Cc1ccc(OCCCF)cc1C21N=C(C)C(N)=N1 (some centres unmarked) [Example 20v]
26 | 5.7 | CO[C@H]1CC[C@]2(CC1)Cc1ccc(NC(=O)c3ncc(Cl)cc3C)cc1C21N=C(C)C(N)=N1 (some centres unmarked) [Example 20w, N-[(1r,4r)-4″-Amino-4-methoxy-5″-methyl-3′H-dispiro[cyclohexane-1,2′-indene-1′,2″-imidazol]-6′-yl]-5-chloro-3-methylpyridine-2-carboxamide]

Reference: patent US10231967B2, “Compounds and their use as BACE inhibitors” (ASTRAZENECA AB, priority 2010, dated 2019)
